System: platelets
Experiment: Example 4: light transmission aggregometry (LTA) induced by 5 and 20 μM ADP
Format: in vivo, human
Description: The study involved 12 patients who met the criteria of being 18-75 years of age, having coronary artery disease (CAD) documented by a previous MI or coronary revascularization, and taking 81 mg of aspirin daily. […] Prohibited concomitant medications included strong and potent CYP3A inhibitors, simvastatin and lovastatin at doses more than 40 mg/day, omeprazole or esomeprazole, and digoxin. Use of non-steroidal anti-inflammatory agents was discouraged during study participation but not prohibited.
Each patient was administered a 30 μg/kg bolus of cangrelor followed immediately by a 2 hr infusion at a rate of 4.0 μg/kg/min. A loading dose of ticagrelor (180 mg) was given after 0.5 hr or 1.25 hr (n=6 for each). Blood for pharmacodynamic platelet function studies was taken after 0.5 or 1.25 hr (corresponding to the time of ticagrelor load, n=6 for each), and then at 1.75, 2, 2.25, 2.5, 2.75, 3, 4, and 5.25 hr. Patients were assigned randomly to receive either 6 (n=6) or 7 (n=6) doses of ticagrelor to be taken every 12 hours following the discontinuation of the infusion of cangrelor. On study day 5, each patient was administered a 30 μg/kg bolus of cangrelor followed immediately by a 2 hr infusion at a rate of 4.0 μg/kg/min. Blood for pharmacodynamic assessment was taken after 1 and 2 hr. Adverse events were queried throughout study participation that ended with a telephone interview performed on study day 10-12.
Pharmacodynamic assessment included light transmission aggregometry (LTA), VerifyNow® P2Y12 assay, vasodilator-stimulated phosphoprotein (VASP) index, and platelet activation measured with the use of flow cytometry. Assessment of LTA, VerifyNow®, and platelet activation with the use of flow cytometry was performed within 30 min of blood being taken. In the case of flow cytometry, samples were processed to fixation and then batched for analysis. For VASP, index samples were batched and processed as recommended by the vendor within 2 h of blood being taken. This approach limited the time from fixation of VASP index to flow analysis to less than 1 h.
LTA induced by 5 μM and 20 μM adenosine diphosphate (ADP) was quantified ex vivo (i.e. in non-adjusted platelet rich plasma). Platelet-poor plasma was set as 100% aggregation, and both maximal (peak) and terminal (at 300 s) aggregation were measured with a PAP4 aggregometer (BioData, Horsham, Pa.). VerifyNow® P2Y12 assay (Accumetrics Inc, San Diego, Calif.) that measures the effects of drugs on the P2Y12 receptor by activating platelets with prostaglandin El in addition to ADP was used in accordance with the instructions provided by the manufacturer. Platelet reactivity was expressed in P2Y12 reaction units (PRU). Activation of platelets was identified with the use of flow cytometry as previously described.^17. And to determine the VASP index, a commercially available kit (Diagnostica Stago, Inc, Parsippany NJ) was used. ^17 Schneider D J, Sobel B E. Streamlining the design of promising clinical trials: in-vitro testing of antithrombotic regimens and multiple agonists of platelet activation. Coron Artery Dis. 2009; 20:175-8.

[1] = reference 5.25 h, Ticagrelor at 0.5 h
[2] = reference 5.25 h, Ticagrelor at 1.25 h
[3] = ticagrelor at 0.5 hr, 1.75 hr later (at 2.25 hr)
[4] = ticagrelor at 1.25 hr, 1.75 hr after the loading dose (at 3.0 hr)

CCCSc1nc(N[C@@H]2C[C@H]2c2ccc(F)c(F)c2)c2nnn([C@@H]3C[C@H](OCCO)[C@@H](O)[C@H]3O)c2n1 [ticagrelor]
IPA, 5 μM ADP, LTA (2.25 h, All): 87 ± 8% | IPA, 20 μM ADP, LTA (2.25 h, All): 83 ± 14% | PR, 5 μM ADP, LTA (2.25 h, All): 7 ± 5% | PR, 20 μM ADP, LTA (2.25 h, All): 12 ± 11% | IPA, 5 μM ADP, LTA (2.25 h, Ticagrelor at 0.5 h): 84 ± 10% | IPA, 20 μM ADP, LTA (2.25 h, Ticagrelor at 0.5 h): 82 ± 13% | PR, 5 μM ADP, LTA (2.25 h, Ticagrelor at 0.5 h): 7.7 ± 5.9% | PR, 20 μM ADP, LTA (2.25 h, Ticagrelor at 0.5 h): 13 ± 9.3% | IPA, 5 μM ADP, LTA (2.25 h, Ticagrelor at 1.25 h): 89 ± 5% | IPA, 20 μM ADP, LTA (2.25 h, Ticagrelor at 1.25 h): 84 ± 17% | PR, 5 μM ADP, LTA (2.25 h, Ticagrelor at 1.25 h): 5.3 ± 3.6% | PR, 20 μM ADP, LTA (2.25 h, Ticagrelor at 1.25 h): 11 ± 12% | IPA, 5 μM ADP, LTA (2.5 h, All): 79 ± 15% | IPA, 20 μM ADP, LTA (2.5 h, All): 72 ± 26% | PR, 5 μM ADP, LTA (2.5 h, All): 10 ± 7% | PR, 20 μM ADP, LTA (2.5 h, All): 19 ± 16% | IPA, 5 μM ADP, LTA (2.5 h, Ticagrelor at 0.5 h): 82 ± 13% | IPA, 20 μM ADP, LTA (2.5 h, Ticagrelor at 0.5 h): 78 ± 21% | PR, 5 μM ADP, LTA (2.5 h, Ticagrelor at 0.5 h): 10 ± 5.7% | PR, 20 μM ADP, LTA (2.5 h, Ticagrelor at 0.5 h): 16 ± 15% | IPA, 5 μM ADP, LTA (2.5 h, Ticagrelor at 1.25 h): 76 ± 18% | IPA, 20 μM ADP, LTA (2.5 h, Ticagrelor at 1.25 h): 65 ± 30% | PR, 5 μM ADP, LTA (2.5 h, Ticagrelor at 1.25 h): 11 ± 9% | PR, 20 μM ADP, LTA (2.5 h, Ticagrelor at 1.25 h): 21 ± 17% | IPA, 5 μM ADP, LTA (2.75 h, All): 86 ± 11% | IPA, 20 μM ADP, LTA (2.75 h, All): 86 ± 15% | PR, 5 μM ADP, LTA (2.75 h, All): 5.8 ± 3% | PR, 20 μM ADP, LTA (2.75 h, All): 10 ± 9.2% | IPA, 5 μM ADP, LTA (2.75 h, Ticagrelor at 0.5 h): 87 ± 7% | IPA, 20 μM ADP, LTA (2.75 h, Ticagrelor at 0.5 h): 84 ± 15% | PR, 5 μM ADP, LTA (2.75 h, Ticagrelor at 0.5 h): 6.7 ± 4.1% | PR, 20 μM ADP, LTA (2.75 h, Ticagrelor at 0.5 h): 12 ± 11% | IPA, 5 μM ADP, LTA (2.75 h, Ticagrelor at 1.25 h): 85 ± 15% | IPA, 20 μM ADP, LTA (2.75 h, Ticagrelor at 1.25 h): 87 ± 15% | PR, 5 μM ADP, LTA (2.75 h, Ticagrelor at 1.25 h): 4.8 ± 0.8% | PR, 20 μM ADP, LTA (2.75 h, Ticagrelor at 1.25 h): 7.8 ± 7.2% | IPA, 5 μM ADP, LTA (3 h, All): 86 ± 17% | IPA, 20 μM ADP, LTA (3 h, All): 90 ± 9% | PR, 5 μM ADP, LTA (3 h, All): 5.5 ± 5.2% | PR, 20 μM ADP, LTA (3 h, All): 7.1 ± 6.3% | IPA, 5 μM ADP, LTA (3 h, Ticagrelor at 0.5 h): 85 ± 15% | IPA, 20 μM ADP, LTA (3 h, Ticagrelor at 0.5 h): 87 ± 10% | PR, 5 μM ADP, LTA (3 h, Ticagrelor at 0.5 h): 8 ± 6.5% | PR, 20 μM ADP, LTA (3 h, Ticagrelor at 0.5 h): 10 ± 7.6% | IPA, 5 μM ADP, LTA (3 h, Ticagrelor at 1.25 h): 87 ± 21% | IPA, 20 μM ADP, LTA (3 h, Ticagrelor at 1.25 h): 93 ± 7% | PR, 5 μM ADP, LTA (3 h, Ticagrelor at 1.25 h): 3 ± 1.5% | PR, 20 μM ADP, LTA (3 h, Ticagrelor at 1.25 h): 4.5 ± 3.4% | IPA, 5 μM ADP, LTA (4 h, All): 88 ± 9% | IPA, 20 μM ADP, LTA (4 h, All): 94 ± 4% | PR, 5 μM ADP, LTA (4 h, All): 5.5 ± 3.3% | PR, 20 μM ADP, LTA (4 h, All): 4.6 ± 3.6% | IPA, 5 μM ADP, LTA (4 h, Ticagrelor at 0.5 h): 87 ± 5% | IPA, 20 μM ADP, LTA (4 h, Ticagrelor at 0.5 h): 91 ± 4% | PR, 5 μM ADP, LTA (4 h, Ticagrelor at 0.5 h): 7.3 ± 3.9% | PR, 20 μM ADP, LTA (4 h, Ticagrelor at 0.5 h): 6.7 ± 3.7% | IPA, 5 μM ADP, LTA (4 h, Ticagrelor at 1.25 h): 89 ± 12% | IPA, 20 μM ADP, LTA (4 h, Ticagrelor at 1.25 h): 96 ± 4% | PR, 5 μM ADP, LTA (4 h, Ticagrelor at 1.25 h): 3.7 ± 1% | PR, 20 μM ADP, LTA (4 h, Ticagrelor at 1.25 h): 2.5 ± 1.9% | residual platelet reactivity (12 hours after the last dose of ticagrelor, study day 5): 12±9% | residual platelet reactivity (at 2.5 hr, ticagrelor 180 mg given at 0.5 hr of 2 hr cangrelor infusion): 16±15% | IPA, 5 μM ADP, LTA (reference 5.25 h, All): 94 ± 5% | IPA, 20 μM ADP, LTA (reference 5.25 h, All): 95 ± 4% | PR, 5 μM ADP, LTA (reference 5.25 h, All): 3.1 ± 2.8% | PR, 20 μM ADP, LTA (reference 5.25 h, All): 4 ± 3.4% | IPA, 5 μM ADP, LTA [1]: 92 ± 6% | IPA, 20 μM ADP, LTA [1]: 92 ± 4% | PR, 5 μM ADP, LTA [1]: 4.2 ± 2% | PR, 20 μM ADP, LTA [1]: 5.8 ± 3.1% | IPA, 5 μM ADP, LTA [2]: 97 ± 4% | IPA, 20 μM ADP, LTA [2]: 97 ± 4% | PR, 5 μM ADP, LTA [2]: 2 ± 2.3% | PR, 20 μM ADP, LTA [2]: 2.2 ± 2.7% | extent of inhibition [3]: 82±13% | residual platelet reactivity [3]: 13±9.3% | extent of inhibition [4]: 93±7% | residual platelet reactivity [4]: 4.5±3.4%
